What was measured:
Details in all cases: incubation time: 72 h
BT-474 [1] = assay: normalised response (% of control), CellTox Green; higher = less cell death (100 = DMSO, 0 = benzethonium chloride kill control)
Method in brief: (§1)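 In 384-well plates holding compound at 5 concentrations in 10-fold steps over a 10,000-fold range specific to each compound, breast cancer cell lines were seeded as 20 µl suspension and incubated 72 h. CellTox Green fluorescence was measured at 485/520 nm, after which CellTiter-Glo luminescence was measured following 10 min at room temperature. Plate signals were normalised to 0.1 % DMSO (100) and a positive kill control (0), and each value is the normalised signal at a single concentration.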

BT-549 [2] = assay: as above
Method in brief: as §1

CAL-120 [3] = assay: as above
Method in brief: as §1

CAL-148 [4] = assay: as above
Method in brief: as §1

CAL-51 [5] = assay: as above
Method in brief: as §1

CAL-85-1 [6] = assay: as above
Method in brief: as §1

DU-4475 [7] = assay: as above
Method in brief: as §1

HCC1143 [8] = assay: as above
Method in brief: as §1

HCC1599 [9] = assay: as above
Method in brief: as §1

HCC1937 [10] = assay: as above
Method in brief: as §1

HDQ-P1 [11] = assay: as above
Method in brief: as §1

Hs578T [12] = assay: as above
Method in brief: as §1

MCF-10A [13] = assay: as above
Method in brief: as §1

MDA-MB-231 [14] = assay: as above
Method in brief: as §1

MDA-MB-436 [15] = assay: as above
Method in brief: as §1

MDA-MB-453 [16] = assay: as above
Method in brief: as §1

MDA-MB-468 [17] = assay: as above
Method in brief: as §1

MFM-223 [18] = assay: as above
Method in brief: as §1

BT-474 [19] = assay: normalised response (% of control), CellTiter-Glo; higher = more viable cells (100 = DMSO, 0 = benzethonium chloride kill control)
Method in brief: as §1

BT-549 [20] = assay: as above
Method in brief: as §1

CAL-120 [21] = assay: as above
Method in brief: as §1

CAL-148 [22] = assay: as above
Method in brief: as §1

CAL-51 [23] = assay: as above
Method in brief: as §1

CAL-85-1 [24] = assay: as above
Method in brief: as §1

DU-4475 [25] = assay: as above
Method in brief: as §1

HCC1143 [26] = assay: as above
Method in brief: as §1

HCC1599 [27] = assay: as above
Method in brief: as §1

HCC1937 [28] = assay: as above
Method in brief: as §1

HDQ-P1 [29] = assay: as above
Method in brief: as §1

Hs578T [30] = assay: as above
Method in brief: as §1

MCF-10A [31] = assay: as above
Method in brief: as §1

MDA-MB-231 [32] = assay: as above
Method in brief: as §1

MDA-MB-436 [33] = assay: as above
Method in brief: as §1

MDA-MB-453 [34] = assay: as above
Method in brief: as §1

MDA-MB-468 [35] = assay: as above
Method in brief: as §1

MFM-223 [36] = assay: as above
Method in brief: as §1

SK-BR-3 = assay: as above
Method in brief: as §1

Compound	normalised response (BT-474 [1]) [%]	normalised response (BT-549 [2]) [%]	normalised response (CAL-120 [3]) [%]	normalised response (CAL-148 [4]) [%]	normalised response (CAL-51 [5]) [%]	normalised response (CAL-85-1 [6]) [%]	normalised response (DU-4475 [7]) [%]	normalised response (HCC1143 [8]) [%]	normalised response (HCC1599 [9]) [%]	normalised response (HCC1937 [10]) [%]	normalised response (HDQ-P1 [11]) [%]	normalised response (Hs578T [12]) [%]	normalised response (MCF-10A [13]) [%]	normalised response (MDA-MB-231 [14]) [%]	normalised response (MDA-MB-436 [15]) [%]	normalised response (MDA-MB-453 [16]) [%]	normalised response (MDA-MB-468 [17]) [%]	normalised response (MFM-223 [18]) [%]	normalised response (BT-474 [19]) [%]	normalised response (BT-549 [20]) [%]	normalised response (CAL-120 [21]) [%]	normalised response (CAL-148 [22]) [%]	normalised response (CAL-51 [23]) [%]	normalised response (CAL-85-1 [24]) [%]	normalised response (DU-4475 [25]) [%]	normalised response (HCC1143 [26]) [%]	normalised response (HCC1599 [27]) [%]	normalised response (HCC1937 [28]) [%]	normalised response (HDQ-P1 [29]) [%]	normalised response (Hs578T [30]) [%]	normalised response (MCF-10A [31]) [%]	normalised response (MDA-MB-231 [32]) [%]	normalised response (MDA-MB-436 [33]) [%]	normalised response (MDA-MB-453 [34]) [%]	normalised response (MDA-MB-468 [35]) [%]	normalised response (MFM-223 [36]) [%]	normalised response (SK-BR-3) [%]
CC(C)NC[C@@H](C(=O)N1CCN(c2ncnc3c2[C@H](C)C[C@H]3O)CC1)c1ccc(Cl)cc1 [GDC-0068] (100 nM)	96.9	98.9	104	82.4	106	108	102	93.9	94.8	104	87	97.8	106	97.8	85	107	125	102	102	94.2	104	62.8	80	98.3	98.8	100	93.9	90.9	89.2	102	111	104	97.3	84.2	84	68.4	95.1
COc1cc(Nc2ncc(F)c(Nc3ccc4c(n3)N(COP(=O)(O)O)C(=O)C(C)(C)O4)n2)cc(OC)c1OC [Fostamatinib] (25 nM)	98.7	60.2	98.4	99.6	95	106	99.6	100	94.1	102	104	101	80.9	92.3	62.8	105	118	78.7	97.3	104	104	88.7	83	98.5	95.6	101	96	99.5	108	93.4	100	101	99.7	93.7	94.7	91.2	91.2
O=C(O)CC[C@H]1CC[C@@](c2cc(F)ccc2F)(S(=O)(=O)c2ccc(Cl)cc2)CC1 [MK-0752] (10 nM)	104	92.4	107	101	103	102	108	120	122	125	105	56.9	109	122	99.9	107	108	85.8	105	93.8	106	108	101	97.2	102	105	91.8	98.8	99.3	106	105	109	99.7	114	96.1	106	105
NC(=O)NO [Hydroxyurea] (1000 nM)	101	105	101	78.8	78.6	115	102	67.2	99.6	109	99.4	101	108	111	101	96.4	103	89.5	92.1	105	102	104	61.3	110	99.6	105	97.1	97.6	95.2	101	99.2	100	98.5	109	102	105	103
